Measurements taken from US6207666A, “Method for treating a patient having precancerous lesion with 4-phenylphthalazine derivatives” (Cell Pathways, Inc., priority 1998, dated 2001).

Columns and labels:
HT-29 cells = assay: Apoptosis and necrosis by fluorescent microscopy (acridine orange and ethidium bromide) in confluent HT-29 cultures; assay type: cell-based, human
Description: Drug stock solutions were made in 100% DMSO then diluted with RPMI media for cell culture testing. All drug solutions were prepared fresh on the day of testing. The cultured cells were obtained at passage #118 and grown in RPMI media supplemented with 5% fetal calf serum, and 2 mM glutamine, 100 U/ml penicillin, 100 U/ml streptomycin, and 0.25 μg/ml amphotericin. The cultures were maintained in a humidified atmosphere of 95% air and 5% CO2 at 37° C. The cultures were passaged at preconfluent densities using a solution of 0.05% trypsin and 0.53 mM EDTA. All experiments involved HT-29 cells between passages 120 and 140. Cells were plated at the following densities to obtain cultures used for the experiments: 500 cells/well for 96 well flat-bottom microtiter plates, 1×10^6 cells per 25 cm^2 flask, or 4×10^6 cells per 75 cm^2 flask. Apoptosis and necrosis were measured using an assay which allowed for the simultaneous measurement of both types of cell death based on morphological characteristics of apoptotic cells (i.e., condensed chromatin) and membrane permeability. Drug preparation and cell culture conditions were the same as above. Confluent cultures were assayed for apoptosis and necrosis by fluorescent microscopy following labeling with acridine orange and ethidium bromide. Floating and attached cells were collected by trypsinization and washed three times in PBS. One ml aliquots of 1×10^6 cells were centrifuged (300 g). The pellet was resuspended in 25 μl media and 1 μl of a dye mixture containing 100 μg/ml acridine orange and 100 μg/ml ethidium bromide prepared in PBS and mixed gently. Ten μl of mixture was placed on a microscope slide and with a 22 mm^2 coverslip and examined under 40 x dry objectives using epilumination and filter combination. An observer blinded to the identity of the treatments scored at least 100 cells per sample. Apoptotic cells were identified by nuclear condensation of chromatin stained by the acridine orange or ethidium bromide. Necrotic cells were identified by uniform labeling of the cell with ethidium bromide. Data was also obtained, under the same procedure above, for the percent of apoptotic cells induced by treatment with varying concentrations of compound No. 17.

[1] = tested on: mammary lesions (mouse mammary gland organ culture); assay: DMBA-induced mammary lesions in mouse mammary gland organ culture; assay type: cell-based, mouse (female BALB/c); conditions: for Glands with Lesions: vehicle 11 of 15; for Percent Incidence (mammary lesions): vehicle 73.33
Description: Compound No. 17 was also tested for its ability to inhibit the incidence of mammary lesions in an organ culture system. This mouse mammary gland organ culture technique has been successfully used by other investigators to study the effects of known cancer-chemopreventative agents such as retinoids and selenium.
Female BALB/c mice, 28 days old, were treated for nine days with a combination of […] of estradiol and 1 mg of progesterone daily, in order to prime the glands to be responsive to hormones in vitro. The animals were sacrificed and thoracic mammary glands were excised aseptically and incubated for ten days in growth media supplemented with growth-promoting hormones: insulin, prolactin, and hydrocortisone, at 5 μg/ml each and aldosterone at 1 μg/ml. A twenty-four hour treatment of 7,12-dimethylbenz(a)anthracene (DMBA, 2 μg/ml) was carried out between days three and four to induce the formation of mammary lesions. Fully developed glands were deprived of prolactin, hydrocortisone, and aldosterone for 14 days, resulting in the regression of the glands but not the mammary lesions.
In order to evaluate the effects of Compound No. 17, it was dissolved in DMSO and added to the culture media supplemented for the duration of the culture period. At the end of the culture period, the glands were fixed in 10%. formalin, stained with alum carmine, and mounted on glass slides. The incidence of forming mammary lesions is the ratio of the glands with mammary lesions and glands […]. The incidence of mammary lesions in compound 17 treated glands was compared with that of the untreated glands.
The extent of the area occupied by the mammary lesions was quantitated by projecting an image of the gland onto a digitation pad. The area covered by the gland was traced on the pad and considered as 100% of the area. The space covered by each of the unregressed structures was also outlined on the digitization pad and quantitated by the computer.

[2] = tested on: human colon carcinoma cell line, HT-29; assay: HT-29 tumor cell growth inhibition, Sulforhodamine B (SRB) protein binding assay, six days continuous exposure; assay type: cell-based; conditions: for SRB Binding (A550): vehicle 0.801 ± 0.137
Description: Compound No. 17, 1-(3-chloroanilino)-4-phenylphthalazine, was assayed for its effect on the human colon carcinoma cell line, HT-29 obtained from ATCC, (Rockville, Md.) to ascertain the degree of growth inhibition. Growth inhibition of this cell line is thought to be indicative of a benefit on precancerous lesions and neoplasms. The cell line and growth assay employed for these experiments is well characterized, and is used by the United States National Cancer Institute in its screening program for new anti-cancer drugs.
Drug stock solutions were made in 100% DMSO then diluted with RPMI media for cell culture testing. All drug solutions were prepared fresh on the day of testing. The cultured cells were obtained at passage #118 and grown in RPMI media supplemented with 5% fetal calf serum, and 2 mM glutamine, 100 U/ml penicillin, 100 U/ml streptomycin, and 0.25 μg/ml amphotericin. The cultures were maintained in a humidified atmosphere of 95% air and 5% CO2 at 37° C. The cultures were passaged at preconfluent densities using a solution of 0.05% trypsin and 0.53 mM EDTA. All experiments involved HT-29 cells between passages 120 and 140. Cells were plated at the following densities to obtain cultures used for the experiments: 500 cells/well for 96 well flat-bottom microtiter plates, 1×10^6 cells per 25 cm^2 flask, or 4×10^6 cells per 75 cm^2 flask.
Tumor cell growth inhibition was assessed using the Sulforhodamine B (SRB) protein binding assay. In this assay, tumor cells were plated in 96-well plates and treated with drug-containing media for six days (continuous exposure). For each plate, 6 wells were designated as no treatment controls, six wells as vehicle (0.1% DMSO) controls, and the remaining wells for drug dilutions with six wells per drug concentration. At the end of the exposure period, the cells were fixed and stained with sulforhodamine B, a protein binding dye. The dye was then solubilized, and the optical density of the resulting solution was determined on a 96-well plate reader. The mean dye intensity of the treated wells was then divided by the mean dye intensity in the control wells (6 wells of each) to determine the effect of the drug on the cells. Dye intensity is proportional to the number of cells or amount of protein per well. The resultant "percent inhibition" value then represents the degree of growth inhibition caused by the drug in Table 4 below.

## Clc1cccc(Nc2nnc(-c3ccccc3)c3ccccc23)c1 [Compound No. 17, 1-(3-Chloroanilino)-4-phenylphthalazine]
HT-29 cells; 1 μM (Table 6), 0 μM gives 4%
  % Apoptotic Cells: 12%
HT-29 cells; 5 μM (Table 6), 0 μM gives 4%
  % Apoptotic Cells: 13%
HT-29 cells; 10 μM (Table 6), 0 μM gives 4%
  % Apoptotic Cells: 7%
HT-29 cells; 25 μM (Table 6), 0 μM gives 4%
  % Apoptotic Cells: 8%
HT-29 cells; 40 μM, HT-29, vehicle 2%, none 5%
  % Necrotic Cells: 6%
HT-29 cells; 40 μM, HT-29, vehicle 9%, none 7%
  % Apoptotic Cells: 83%
HT-29 cells; 50 μM (Table 6), 0 μM gives 4%
  % Apoptotic Cells: 78%
[1]; 10 μM, of 13 glands
  Glands with Lesions: 7
[1]; 10 μM
  Percent Incidence (mammary lesions): 53.85%
[1]; 100 μM, of 15 glands
  Glands with Lesions: 4
[1]; 100 μM
  Percent Incidence (mammary lesions): 26.67%
[1]; Mus musculus, 10 μM, read-out: Percent Inhibition (mammary lesions)
  inhibition at 10 µM: 27%
[1]; Mus musculus, 100 μM, read-out: Percent Inhibition (mammary lesions)
  inhibition at 100 µM: 64%
[2]; 1 μM
  SRB Binding (A550): 0.851 ± 0.059
[2]; 10 μM
  SRB Binding (A550): 0.007 ± 0.003
[2]; 100 μM
  SRB Binding (A550): 0.009 ± 0.010
[2]; Homo sapiens, 144 h, 1 μM
  inhibition at 1 µM: 0%
[2]; Homo sapiens, 144 h, 10 μM
  inhibition at 10 µM: 100%
[2]; Homo sapiens, 144 h, 100 μM
  inhibition at 100 µM: 100%
